According to the supplement of paper PMC10307832:

How the values were obtained:
Assay in all cases: relative viability (nuclei count vs DMSO), 5 days (fraction); higher = more cells survive
[1] = compound: Cc1ccc2nc(NCCN)c3ncc(C)n3c2c1 + CC1(C)CCC(c2ccc(Cl)cc2)=C(CN2CCN(c3ccc(C(=O)NS(=O)(=O)c4ccc(N[C@H](CCN5CCOCC5)CSc5ccccc5)c(S(=O)(=O)C(F)(F)F)c4)cc3)CC2)C1 [Navitoclax] (partner 0.5 µM)
Method in brief: (§1)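 Lung cancer cell lines in 1536-well plates got either a single drug or a fixed anchor-drug dose together with five library-drug doses (not always all listed) in √10 steps, by pin tool, on the day after seeding. Nuclei were counted after 5 days, and relative viability is the treated-to-vehicle ratio of nuclei counts. Values are medians of duplicate plates.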

[2] = compound: Cc1ccc2nc(NCCN)c3ncc(C)n3c2c1 + CS(=O)(=O)CCNCc1ccc(-c2ccc3ncnc(Nc4ccc(OCc5cccc(F)c5)c(Cl)c4)c3c2)o1 [Lapatinib] (partner 2 µM)
Method in brief: as §1

[3] = compound: O=C(/C=C/c1ccccc1)NC(NC(=S)Nc1cccc2cccnc12)C(Cl)(Cl)Cl [Salubrinal] + CCNC(=O)c1noc(-c2cc(C(C)C)c(O)cc2O)c1-c1ccc(CN2CCOCC2)cc1 [Luminespib] (partner 0.01 µM)
Method in brief: as §1

[4] = compound: O=C(/C=C/c1ccccc1)NC(NC(=S)Nc1cccc2cccnc12)C(Cl)(Cl)Cl [Salubrinal] + Cc1nc(Nc2ncc(C(=O)Nc3c(C)cccc3Cl)s2)cc(N2CCN(CCO)CC2)n1 [Dasatinib] (partner 0.075 µM)
Method in brief: as §1

Cell Line | relative viability ([1]; first compound 0.04 µM) | relative viability ([1]; first compound 0.1265 µM) | relative viability ([1]; first compound 0.4 µM) | relative viability ([1]; first compound 1.265 µM) | relative viability ([1]; first compound 4 µM) | relative viability ([2]; first compound 0.04 µM) | relative viability ([2]; first compound 0.1265 µM) | relative viability ([2]; first compound 0.4 µM) | relative viability ([2]; first compound 1.265 µM) | relative viability ([2]; first compound 4 µM) | relative viability ([3]; first compound 0.08 µM) | relative viability ([3]; first compound 0.253 µM) | relative viability ([3]; first compound 0.8 µM) | relative viability ([3]; first compound 2.53 µM) | relative viability ([3]; first compound 8 µM) | relative viability ([4]; first compound 0.08 µM) | relative viability ([4]; first compound 0.253 µM) | relative viability ([4]; first compound 0.8 µM) | relative viability ([4]; first compound 2.53 µM) | relative viability ([4]; first compound 8 µM)
COR-L23 | 1.05 | 0.944 | 1.1 | 0.973 | 0.886 | 1.27 | 0.874 | 0.924 | 0.837 | 0.853 | 0.933 | 0.612 | 0.587 | 0.773 | 0.728 | 0.522 | 0.496 | 0.645 | 0.53 | 0.453
NCI-H2087 | 0.985 | 1.09 | 1.01 | 0.856 | 1.06 | 1.25 | 1.14 | 1.16 | 1.08 | 1.07 | 0.151 | 0.164 | 0.16 | 0.187 | 0.183 | 0.954 | 0.62 | 1.15 | 1.01 | 0.733
LC-2-ad | 0.404 | 0.431 | 0.491 | 0.526 | 0.508 | 0.939 | 0.922 | 0.915 | 0.945 | 0.89 | 1.06 | 1.13 | 1.05 | 0.979 | 0.98 | 0.543 | 0.354 | 1.11 | 0.581 | 0.448
NCI-H1915 | 0.793 | – | 0.781 | 0.774 | 0.766 | 1.01 | – | 0.68 | 0.991 | 0.947 | 0.918 | 0.559 | 1.26 | 0.71 | 0.752 | 0.359 | 0.373 | 0.323 | 0.298 | 0.345
NCI-H2023 | 1.05 | 0.999 | 1.03 | 1.03 | 0.954 | 0.949 | 0.884 | 0.651 | 1.26 | 0.69 | 0.884 | 0.703 | 0.874 | 0.517 | 0.884 | 0.707 | 0.489 | 0.671 | 0.593 | 0.343
COR-L 105 | 0.809 | 0.802 | 0.802 | 0.899 | 0.698 | 0.451 | 0.351 | 0.352 | 0.399 | 0.339 | 0.7 | 0.699 | 0.761 | 0.812 | 0.738 | 0.365 | 0.325 | 0.345 | 0.317 | 0.319
RERF-LC-KJ | 0.881 | 0.821 | 1.02 | 0.65 | 0.726 | 0.834 | 0.925 | 0.911 | 0.809 | 0.84 | 1.31 | 1.37 | 1.41 | 1.13 | 1.08 | 0.928 | 0.771 | 0.92 | 0.827 | 0.634
LXF-289 | 0.946 | 0.909 | 0.936 | 0.922 | 0.952 | 0.956 | 0.882 | 0.894 | 0.873 | 0.902 | 0.74 | 0.595 | 0.569 | 0.727 | 0.643 | 0.173 | 0.241 | 0.234 | 0.236 | 0.15
